According to patent publication US20090253768A1, “THERAPEUTIC COMPOUNDS FOR DISEASES AND DISORDERS” (Myriad Genetics, Incorporated, priority 2006, published 2009):

Test system: khc/+; klc/+ Drosophila larvae
Assay: Suppression of the flipper (tail-flipping) motor dysfunction phenotype in an animal model
Assay type: in vivo, Drosophila melanogaster
Conditions: for larvae effectively "cured" of their motor dysfunction: after accounting for penetrance
From the text: A stock of fruit flies (Drosophila melanogaster) was generated that is heterozygous for both KHC and KLC, which encode proteins that associate to form functional kinesin-1, also called conventional kinesin. […] A number of factors that contribute to this incomplete penetrance were identified, including the following: • 1. The flipper phenotype of a given animal appears to be suppressed by the number of larvae that precede the animal in development. That is, if a larva is among the first to develop in a vial of eggs, it is more likely to show the flipper phenotype than if it is one of the last to emerge. • 2. The flipper phenotype appears to be less robust on hard media than it is on soft media. • 3. The phenotype is diminished by physically disturbing the larvae. • 4. The clearest expression of the flipper phenotype is restricted to that phase of the 3rd instar stage of development that follows the appearance of spiracles.
Attempts to accommodate these observations were mad in order to optimize penetrance of the phenotype. Specifically: • 1. Virgin females and males were confined to a single vial for only 2 days; the flies were then transferred to fresh vials for an additional 2 days; and this process was repeated to minimize the number of larvae that would emerge in each vial. • 2. Efforts were taken to minimize handling of the larvae. • 3. Attempts were made to score the phenotype late in the 3rd instar stage of development.
In a non-blinded experiment, compound 16 (Tables 1 and 2) was tested for its ability to suppress the flipper phenotype of khc/+; klc/+ Drosophila larvae (using the animal model described in Example 7), relative to vehicle (DMSO) alone. Specifically khc/+; klc/+ Drosophila larvae were grown in the presence or absence of 0.5 mM compound 16 and scored for motor dysfunction. A total of 151 larvae were scored, 77 in the vehicle-only group and 74 in the vehicle plus compound group. […] The ratio of Flipper to Non-Flipper phenotype observed in the vehicle-only group corresponds to an 81% penetrance of the flipper phenotype in this experiment. […] Note that equivalent conclusions were obtained if, instead of scoring the number of larvae with and without motor dysfunction, the severity of the aberrant movement was analyzed.
This experiment was repeated using a blinded format and a total of 221 larvae were scored. Of the larvae in this study 104 larvae were in the vehicle-only group and 117 larvae were in the treatment group. […] The results of this second study are quite similar to those of the first study: after accounting for the differences in penetrance between the studies, compound 16 effectively “cured” 42% of the larvae of their motor dysfunction in the first experiment, and 43% of the larvae in the second experiment.

SMILES: Cc1c(-c2ccccc2)cc(-c2ccc(C(F)(F)F)cc2)n1-c1ccc(CCCC(=O)O)cc1 [Compound 16, 4-{4-[2-Methyl-3-phenyl-5-(4-trifluoromethyl-phenyl)-pyrrol-1-yl]-phenyl}-butyric acid]
- reduction in flipper phenotype relative to vehicle (blinded repeat, 117 treated vs 104 vehicle larvae, vehicle penetrance 78%, Yates' chi-square p <1x10^-6): highly significant reduction in flipper phenotype
- larvae effectively "cured" of their motor dysfunction (first (non-blinded) experiment, 0.5 mM): 42%
- suppression of the Flipper phenotype relative to vehicle (DMSO) (non-blinded experiment, larvae grown with 0.5 mM compound, 74 treated vs 77 vehicle larvae, vehicle penetrance 81%, Fischer's test p less than 10^-4): significant suppression of the Flipper phenotype
- larvae effectively "cured" of their motor dysfunction (second (blinded) experiment): 43%
